Experimental data from patent publication US11518742B2 (priority 2020, dated 2022).
Like-named read-outs stand apart in the source and are kept apart here.

Tests used:
[1] = Controlled cooling crystallisation: solubility in minimal solvent at 50 °C; type: physicochemical
Procedure: (detailed in the Table below). The solutions were clarified through a 0.45 μm Teflon syringe filter into pre-heated crystallisation tubes and cooled from 50° C. to −10° C. over 60 hours (1° C. Hr-1 cooling rate) and held at −10° C. for 50 hours (no agitation).
Solutions were clarified into crystallisation tubes at 50° C. and were cooled to −10° C. at a rate of 10° C.·hr-1, then equilibrated at −10° C. for 12 hours, then agitated at −10° C. at 400 rpm for 30 minutes which afforded a mobile suspension for all samples except Sample I which remained a solution. Further equilibration with agitation at −10° C. at 400 rpm for 3 hours afforded a thin suspension. All samples were isolated via isolute cartridge and air dried for 5 minutes before characterisation.

[2] = Competitive equilibration of Pattern A, B and C forms in solvents; type: physicochemical; conditions: suspension in 0.5 ml solvent agitated 24 hours; AB = Pattern A 15 mg + Pattern B 30 mg, AC = Pattern A 15 mg + Pattern C 30 mg; 1 IPA, 2 toluene, 3 iPrOAc, 4 MeCN, 5 MEK, 6 2-MeTHF
Procedure: Solvent, 0.5 ml, was charged to crystallisation tubes as detailed in the Table below. Suspensions were agitated at 100 rpm at […] for 24 hours. Suspensions were isolated via isolute cartridge and air dried for 5 minutes and characterised by XRPD and DSC.

[3] = test system: Slugs (Arion lusitanicus); type: in vivo
Source text: The Slug Mucosal Irritation (SMI) assay was initially developed at the Laboratory of Pharmaceutical Technology (UGent) to predict the mucosal irritation potency of pharmaceutical formulations and ingredients. The test utilizes the terrestrial slug Arion lusitanicus. The body wall of the slugs is a mucosal surface composed of different layers.
The outer single-layered columnar epithelium that contains cells with cilia, cells with micro-villi and mucus secreting cells covers the subepithelial connective tissue. Slugs that are placed on an irritating substance will produce mucus. Additionally tissue damage can be induced which results in the release of proteins and enzymes from the mucosal surface. […] A classification prediction model that distinguishes between irritation (mucus production) and tissue damage (release of proteins and enzymes) has been developed. […] A 5% shampoo dilution or artificial tears were instilled in the eye and the discomfort was scored by the participants on a 5 point scale during several time points up to 30 min after instillation. The same shampoos were tested in the SMI assay using the Stinging, Itching and Burning (SIB) protocol.
The purpose of this assay was to assess the stinging, itching or burning potential of the test item(s) defined below. Using the objective values obtained for the mucus production the stinging, itching or burning potential of the test item(s) can be estimated by means of the prediction model that is composed of four categories (no, mild, moderate and severe).
Test System: Slugs (Arion lusitanicus); 3 slugs per treatment group. The parental slugs of Arion lusitanicus collected in local gardens along Gent and Aalter (Belgium) are bred in the laboratory in an acclimatized room (18-20° C.). The slugs are housed in plastic containers and fed with lettuce, cucumber, carrots and commercial dog food.
Test Design: A single study was performed.
Slugs weighing between 3 and 6 g were isolated from the cultures two days before the start of an experiment. The body wall was inspected carefully for evidence of macroscopic injuries. […] The slugs were placed in a plastic box lined with paper towel moistened with PBS and were kept at 18-20° C. Daily the body wall of the slugs was wetted with 300 μl PBS using a micropipette.
An overview of this can be seen in FIG. 4.
The mucus production was expressed as % of the body weight.
Based on the endpoint of the SMI assay the stinging, itching or burning potency of the test item(s) was estimated using a classification prediction model.
The evaluation of the test results was based upon the total amount of mucus production during 3 repeated contact periods with the test item.
For each slug, the mucus production was expressed in % of the body weight by dividing the weight of the mucus produced during each contact period by the body weight of the slug before the start of that contact period. The total mucus was calculated for each slug and then the mean per treatment group was calculated. The classification prediction model shown in Table 1 was used to classify the compounds.

[4] = test system: Slugs (Arion lusitanicus); assay: SMI assay, historical data (30-min / 60-min contact periods); type: in vivo; conditions: for Total MP (% body weight): treatment time 60-min; for CP1 60-min, amount of mucus produced: Table 6; for CP1 60-min, amount of mucus produced / CP1 30-min, amount of mucus produced / CP2 30-min, amount of mucus produced / Day 1 CP1 60-min, amount of mucus produced / Day 2 CP2 60-min, amount of mucus produced / Total MP: historical data; for Ranking of salts by SIB reactions: comparison of 60-min historical data with SIB protocol data; for CP1 30-min, amount of mucus produced / CP2 30-min, amount of mucus produced: Table 4 (Code 00E04); for Day 1 CP1 60-min, amount of mucus produced / Day 2 CP2 60-min, amount of mucus produced: Table 5; for Day 1 CP1 60-min, amount of mucus produced: 1% in CP1; for Day 2 CP2 60-min, amount of mucus produced: 3.5% in CP2
[5] = Concentration 10%, treatment time 45-min (3× 15-min)
[6] = Table 2, stinging, itching and burning
[7] = Table 3, stinging, itching and burning

## COc1ccc2[nH]cc(CCN(C)C)c2c1.O=C(O)c1ccccc1 [5MeODMT benzoate lot 20/20/150FP2]
[1]; 2-Chlorotoluene, at 80 °C (suspension at 12.5 mg·ml-1 at 50 °C), cryst. tube K
  Solubility mg · ml^−1 at ° C.: 12.5 at 80 mg · ml^−1
[1]; 4-Methyl-2-pentanone, at 50 °C, cryst. tube H, minimal solvent for clear solution
  Solubility mg · ml^−1 at ° C.: 25 at 50 mg · ml^−1
[1]; Cumene, at 80 °C (suspension at 12.5 mg·ml-1 at 50 °C), cryst. tube I
  Solubility mg · ml^−1 at ° C.: 12.5 at 80 mg · ml^−1
[1]; Ethyl formate, at 50 °C, cryst. tube E, minimal solvent for clear solution
  Solubility mg · ml^−1 at ° C.: 40 at 50 mg · ml^−1
[1]; Iso-Butyl acetate, at 50 °C, cryst. tube D, minimal solvent for clear solution
  Solubility mg · ml^−1 at ° C.: 12.5 at 50 mg · ml^−1
[1]; Iso-Propyl acetate, at 50 °C, cryst. tube C, minimal solvent for clear solution
  Solubility mg · ml^−1 at ° C.: 16.7 at 50 mg · ml^−1
[1]; Methyl acetate, at 50 °C, cryst. tube A, minimal solvent for clear solution
  Solubility mg · ml^−1 at ° C.: 33.3 at 50 mg · ml^−1
[1]; Methyl benzoate, at 50 °C, cryst. tube F, minimal solvent for clear solution
  Solubility mg · ml^−1 at ° C.: 50 at 50 mg · ml^−1
[1]; Methyl propionate, at 50 °C, cryst. tube G, minimal solvent for clear solution
  Solubility mg · ml^−1 at ° C.: 40 at 50 mg · ml^−1
[1]; Toluene, at 80 °C (suspension at 12.5 mg·ml-1 at 50 °C), cryst. tube J
  Solubility mg · ml^−1 at ° C.: 12.5 at 80 mg · ml^−1
[1]; n-Propyl acetate, at 50 °C, cryst. tube B, minimal solvent for clear solution
  Solubility mg · ml^−1 at ° C.: 20 at 50 mg · ml^−1
[1]; α,α,α-Trifluorotoluene, at 80 °C (suspension at 12.5 mg·ml-1 at 50 °C), cryst. tube L
  Solubility mg · ml^−1 at ° C.: 12.5 at 80 mg · ml^−1

## COc1ccc2[nH]cc(CCN(C)C)c2c1.O=C(O)c1ccccc1 [AB1]
[2]
  Summary of solid form characterisation, DSC endotherm: Endotherm at 124 °C
  Summary of solid form characterisation, XRPD: Pattern A

## COc1ccc2[nH]cc(CCN(C)C)c2c1.O=C(O)c1ccccc1 [AB2]
[2]
  Summary of solid form characterisation, DSC endotherm: Endotherm at 122 °C
  Summary of solid form characterisation, XRPD: Pattern C

## COc1ccc2[nH]cc(CCN(C)C)c2c1.O=C(O)c1ccccc1 [AB3]
[2]
  Summary of solid form characterisation, XRPD: Pattern A

## COc1ccc2[nH]cc(CCN(C)C)c2c1.O=C(O)c1ccccc1 [AB4]
[2]
  Summary of solid form characterisation, DSC endotherm: Endotherm at 124 °C
  Summary of solid form characterisation, XRPD: Pattern A

## COc1ccc2[nH]cc(CCN(C)C)c2c1.O=C(O)c1ccccc1 [AB5]
[2]
  Summary of solid form characterisation, DSC endotherm: Endotherm at 124 °C
  Summary of solid form characterisation, XRPD: Pattern A

## COc1ccc2[nH]cc(CCN(C)C)c2c1.O=C(O)c1ccccc1 [AB6]
[2]
  Summary of solid form characterisation, DSC endotherm: Endotherm at 124 °C
  Summary of solid form characterisation, XRPD: Pattern A

## COc1ccc2[nH]cc(CCN(C)C)c2c1.O=C(O)c1ccccc1 [AC1]
[2]
  Summary of solid form characterisation, DSC endotherm: Endotherm at 124 °C
  Summary of solid form characterisation, XRPD: Pattern A

## COc1ccc2[nH]cc(CCN(C)C)c2c1.O=C(O)c1ccccc1 [AC2]
[2]
  Summary of solid form characterisation, DSC endotherm: Endotherm at 123 °C +
  Summary of solid form characterisation, XRPD: Pattern C

## COc1ccc2[nH]cc(CCN(C)C)c2c1.O=C(O)c1ccccc1 [AC4]
[2]
  Summary of solid form characterisation, DSC endotherm: Endotherm at 124 °C
  Summary of solid form characterisation, XRPD: Pattern A

## O=C([O-])/C=C/C(=O)[O-].[Na+].[Na+] [Disodium fumarate, 10%, Disodium fumarate]
[3]; [5]
  Total MP (% body weight): 13.3 % body weight
[3]; [6]
  SIB Category: Moderate (Moderate: 10% ≤ total MP < 17.5%)
[3]; [7]
  SIB Category: Moderate (Moderate: 10% ≤ total MP < 17.5%)
[3]; mucus produced, first 15-min contact period, mean ± SD, n = 3
  MP CP1 (%): 5.0 ± 2.5%

## CC(=O)[O-].[Na+] [Sodium acetate, 10%, Sodium acetate]
[3]; in vivo
  SIB Category: Moderate (key: No: total MP < 5.5%; Mild: 5.5% ≤ total MP < 10%; Moderate: 10% ≤ total MP < 17.5%; Severe: total MP ≥ 17.5%)
  Total MP (% body weight): 11.0 % body weight

## O=C([O-])c1ccccc1.[Na+] [Sodium benzoate]
[4]; Concentration 1%
  Total MP (% body weight): 2.6 % body weight
[4]; Concentration 10%
  Total MP (% body weight): 6.9 % body weight
[4]; listed as Sodium benzoate (1%)
  CP1 60-min, amount of mucus produced: 2.6 ± 0.3
[4]; listed as Sodium benzoate (10%)
  CP1 60-min, amount of mucus produced: 6.9 ± 1.2
[4]
  Ranking of salts by SIB reactions: least irritating salt

## O=C([O-])CC(O)(CC(=O)[O-])C(=O)[O-].[Na+].[Na+].[Na+] [Sodium citrate, 10%, Sodium citrate]
[3]; [5]
  Total MP (% body weight): 12.5 % body weight
[3]; [6]
  SIB Category: Moderate (Moderate: 10% ≤ total MP < 17.5%)
[3]; [7]
  SIB Category: Moderate (Moderate: 10% ≤ total MP < 17.5%)

## O=C([O-])C(=O)[O-].[Na+].[Na+] [Sodium oxalate]
[4]; Concentration 1%
  Total MP (% body weight): 11.2 % body weight
[4]
  CP1 30-min, amount of mucus produced: 4.5 ± 1.3
  CP2 30-min, amount of mucus produced: 6.6 ± 1.0
  Day 1 CP1 60-min, amount of mucus produced: 11.2 ± 3.9
  Day 2 CP2 60-min, amount of mucus produced: 16.0 ± 4.0
  Ranking of salts by SIB reactions: most irritating salt

## O=P([O-])(O)O.[Na+] [Sodium phosphate, 10% monobasic, Sodium phosphate monobasic]
[3]; [5]
  Total MP (% body weight): 15.2 % body weight
[3]; [6]
  SIB Category: Moderate (Moderate: 10% ≤ total MP < 17.5%)
[3]; [7]
  SIB Category: Moderate (Moderate: 10% ≤ total MP < 17.5%)

## Benzalkonium chloride [PC - 1% BAC]
[4]
  CP1 30-min, amount of mucus produced: 13.2 ± 4.2
  CP2 30-min, amount of mucus produced: 18.6 ± 9.8
  Day 1 CP1 60-min, amount of mucus produced: 21.9 ± 4.8
  Day 2 CP2 60-min, amount of mucus produced: 9.7 ± 3.2
  CP1 60-min, amount of mucus produced: 15.0 ± 1.9
[4]; Table 4, 2 x 30-min contact periods
  Total MP: 31.8 ± 12.6
[4]; Table 5, 2 x 60-min contact periods
  Total MP: 31.6 ± 2.5
